Values joined by “and” are separate entries in the source; they are usually repeats but may differ in a detail not shown here. Identical values can stand only once.
Experiments:
[1] = tested on: hrpA promoter (T3SS); assay: hrpA promoter-probe phrpA in Erwinia amylovora 273, flow cytometry; assay type: cell-based; conditions: Ea273 (phrpA), HIM + 100 μM compound
How it was run: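 Erwinia amylovora 273 carrying an hrpA promoter–GFP fusion (pPROBE-NT) was grown in hrp-inducing medium with 100 μM compound or DMSO. Promoter activity read as GFP intensity by flow cytometry at 6 h and 9 h.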

[2] = tested on: rsmB RNA; assay: qRT-PCR relative mRNA level of rsmB; assay type: cell-based, Dickeya dadantii 3937
Protocol: Bacterial strains were grown in MM. Total RNA from the bacterial cells was isolated by using the TRI reagent method (Sigma, Mo.) and treated with Turbo DNA-free DNase kits (Ambion, Tex.) as described (Peng et al., 2006). An iScript cDNA Synthesis Kit (Bio-Rad, CA) was used to synthesize cDNA from 0.5 μg of treated total RNA. The Real Master Mix (Eppendorf, Westbury, N.Y.) was used for qRT-PCR reaction to quantify the cDNA level of target genes in different samples. The rplU was used as the endogenous control for data analysis. qRT-PCR data were analyzed using Relative Expression Software Tool as described (Pfaffl, M. W., Horgan, G. W., and Dempfle, L. (2002) Relative expression software tool (REST) for group-wise comparison and statistical analysis of relative expression results in real-time PCR. Nucleic Acids Res 30:e36.).

[3] = tested on: hrpS promoter; assay: GFP reporter plasmid phrpS, flow cytometry of hrpS promoter activity; assay type: cell-based, Dickeya dadantii 3937; conditions: for GFP Mean Fluorescence Intensity, hrpS promoter: MM + 0.1 mM compound; for mean fluorescence intensity of GFP, hrpS promoter: 3937 (phrpS), MM + 100 μM
How it was run: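 Wild-type Ech3937 and mutant strains carrying the phrpS GFP reporter were grown overnight in LB at 28 °C, then transferred to appropriate media with compounds. Cells were washed and resuspended in PBS to ca 10^6 CFU/ml for flow cytometry, three replicates per treatment.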

[4] = tested on: hrpN promoter (T3SS); assay: GFP reporter plasmid phrpN, flow cytometry of hrpN promoter activity; assay type: cell-based, Dickeya dadantii 3937; conditions: for GFP Mean Fluorescence Intensity, hrpN promoter: MM + 0.1 mM compound; for mean fluorescence intensity of GFP, hrpN promoter: 3937 (phrpN), MM + 100 μM
Protocol: (§1) FACS analysis of promoter activity of dspE, hrpA, hrpL, hrpN, and hrpS was carried out as described (Peng et al., 2006). Briefly, the wild-type Ech3937 and the mutant strains carrying the promoter reporter plasmid were grown on LB broth at 28° C. overnight and transferred to appropriate media. For FACS analysis, samples were collected by centrifugation, washed with 1× phosphate buffer saline (PBS) at 13,000 rpm for 1 min, and re-suspended in 1×PBS to ca 10^6 CFU/ml prior to being run in a FACS Calibur flow cytometer (BD Biosciences, CA). Three replicates were performed for each treatment.
Phenolic compounds constitute an important class of organic substances produced by plants. The phenolic compound SA is a signaling molecule that plays a role in host defenses. OCA and TCA are the biosynthetic precursors of SA and are also reported to induce the expression of defense-related genes in plants. OCA, TCA, and SA were examined to elucidate their effects on the expression of T3SS genes. The expression of the T3SS gene hrpN was examined in MM and MM supplemented with OCA, TCA, and SA, at concentrations of 0.05, 0.1, and 0.2 mM, respectively. FIGS. 2A and 2B show the promoter activities of hrpN in Dickeya dadantii 3937 (Ech3937) grown in MM and MM supplemented with 0.05, 0.1, and 0.2 mM OCA, TCA, and SA at 12 h (FIG. 2A) and 24 h (FIG. 2B) post-inoculation. GFP intensity was determined on gated populations of bacterial cells by flow cytometry and analyzed with the Cell Quest software (BD Biosciences, San Jose, Calif.). The growth of Ech3937 in MM supplemented with different concentrations of OCA, TCA and SA was recorded. Compared with MM alone, the average GFP fluorescence intensity of bacterial cells of Ech3937 (phrpN) was increased approximately 4-fold when 0.05 mM of OCA and TCA were added to the medium (FIGS. 2A, 2B).

[5] = tested on: hrpA promoter (T3SS); assay: GFP reporter plasmid phrpA, flow cytometry (FACS) of hrpA promoter activity; assay type: cell-based, Dickeya dadantii 3937; conditions: for GFP Mean Fluorescence Intensity, hrpA promoter: MM + 0.1 mM compound
How it was run: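 D. dadantii (Ech) 3937 carrying the phrpA promoter–GFP transcriptional fusion was grown in T3SS minimal medium with 100 μM compound, starting from an inoculum of OD600 1.0. GFP was read by flow cytometry at 12 and 24 h. Values are mean fluorescence intensity of three replicates ± SD, with compound-free MM as control.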

[6] = tested on: hrpL promoter; assay: GFP reporter plasmid phrpL, flow cytometry of hrpL promoter activity; assay type: cell-based, Dickeya dadantii 3937; conditions: for GFP Mean Fluorescence Intensity, hrpL promoter: MM + 0.1 mM compound; for mean fluorescence intensity of GFP, hrpL promoter: 3937 (phrpL), MM + 100 μM
Protocol: as §1

[7] = hrpL mutant WPP96 (phrpN), 12 h
[8] = hrpL mutant WPP96 (phrpA), 12 h
[9] = Trial 1, MM supplemented with compound at 100 μM

**Q.** With `O=C(O)/C=C/c1ccccc1` [Compound 001, trans-cinnamic acid] as the compound, how does the “Avg MFI ± SD, hrpA expression” value ([1]; 6 h) read?
**A.** 471.2 ± 12.6

**Q.** And the “Avg MFI ± SD, hrpA expression” value ([1]; 9 h)?
**A.** 432.6 ± 17.8

**Q.** And the “rsmB mRNA relative expression ratio (MM alone normalized to 1)” value ([2]; Ech3937 in MM supplemented with compound)?
**A.** 1.58

**Q.** And the “GFP Mean Fluorescence Intensity, hrpS promoter” value ([3]; Ech3937 (phrpS), 12 h)?
**A.** 54 ± 2

**Q.** What about the “GFP Mean Fluorescence Intensity, hrpS promoter” value ([3]; hrpL mutant WPP96 (phrpS), 12 h) of the same compound?
**A.** 360 ± 16

**Q.** And the “increase of average GFP fluorescence intensity of Ech3937 (phrpN) compared with MM alone” value ([4]; 0.05 mM compound, 12 h and 24 h (FIGS. 2A, 2B))?
**A.** approximately 4 fold

**Q.** And the “hrpN expression in Ech3937 and hrpX, hrpY, hrpS mutants, in words” value ([4]; 0.1 mM, 12 h (FIG. 5))?
**A.** induced the expression of hrpN in Ech3937, but not in hrpX, hrpY, and hrpS mutants

**Q.** And the “GFP Mean Fluorescence Intensity, hrpN promoter” value ([4]; Ech3937 (phrpN), 12 h)?
**A.** 103 ± 1

**Q.** What about the “GFP Intensity of Ech3937 (phrpN)” value ([4]; MM + 0.2 μM compound, 12 h) of the same compound?
**A.** 65.1 ± 6.8

**Q.** What about the “GFP Intensity of Ech3937 (phrpN)” value ([4]; MM + 0.2 μM compound, 24 h) of the same compound?
**A.** 163 ± 25

**Q.** What about the “GFP Intensity of Ech3937 (phrpN)” value ([4]; MM + 0.5 μM compound, 12 h) of the same compound?
**A.** 73.4 ± 4.2

**Q.** What about the “GFP Intensity of Ech3937 (phrpN)” value ([4]; MM + 0.5 μM compound, 24 h) of the same compound?
**A.** 158 ± 20

**Q.** What about the “GFP Intensity of Ech3937 (phrpN)” value ([4]; MM + 5 μM compound, 12 h) of the same compound?
**A.** 134 ± 5.6

**Q.** What about the “GFP Intensity of Ech3937 (phrpN)” value ([4]; MM + 5 μM compound, 24 h) of the same compound?
**A.** 266 ± 14

**Q.** And the “GFP Intensity of Ech3937 (phrpN)” value ([4]; MM + 10 μM compound, 12 h)?
**A.** 147 ± 18

**Q.** What about the “GFP Intensity of Ech3937 (phrpN)” value ([4]; MM + 10 μM compound, 24 h) of the same compound?
**A.** 284 ± 12

**Q.** What about the “GFP Mean Fluorescence Intensity, hrpN promoter” value [4, 7] of the same compound?
**A.** 3.3 ± 0

**Q.** What about the “change of average GFP fluorescence intensity of Ech3937 (phrpA) vs MM alone, in words” value ([5]; 0.1 mM, 12 h) of the same compound?
**A.** doubled

**Q.** And the “GFP Mean Fluorescence Intensity, hrpA promoter” value ([5]; Ech3937 (phrpA), 6 h)?
**A.** 22.3 ± 2.1

**Q.** What about the “GFP Mean Fluorescence Intensity, hrpA promoter” value ([5]; Ech3937 (phrpA), 24 h) of the same compound?
**A.** 203.7 ± 16.1

**Q.** What about the “GFP Mean Fluorescence Intensity, hrpA promoter” value [5, 8] of the same compound?
**A.** 6.2 ± 0.6

**Q.** And the “GFP Mean Fluorescence Intensity, hrpL promoter” value ([6]; Ech3937 (phrpL), 12 h)?
**A.** 19 ± 1

**Q.** What about the “GFP Mean Fluorescence Intensity, hrpL promoter” value ([6]; hrpL mutant WPP96 (phrpL), 12 h) of the same compound?
**A.** 331 ± 27

**Q.** What does the source list for `O=C(O)/C=C/c1ccc(O)cc1` [Compound 004, para-coumaric acid]?
**A.** Avg MFI ± SD, hrpA expression ([1]; 6 h): 920.6 ± 29.1; Avg MFI ± SD, hrpA expression ([1]; 9 h): 993.8 ± 43.3; rsmB mRNA compared with MM alone, in words ([2]; 0.1 mM in MM): No significant difference; GFP Mean Fluorescence Intensity, hrpN promoter ([4]; Ech3937 (phrpN), 12 h, listed as PCA): 6.8 ± 0.8 and 4.3 ± 0.1; GFP Mean Fluorescence Intensity, hrpN promoter ([4]; Ech3937 (phrpN), 24 h, listed as PCA): 8.8 ± 2.1; GFP Mean Fluorescence Intensity, hrpN promoter [4, 7]: 3.0 ± 0.0; GFP Mean Fluorescence Intensity, hrpN promoter ([4]; hrpL mutant WPP96 (phrpN), 24 h): 4.3 ± 0.1; GFP Mean Fluorescence Intensity, hrpN promoter ([4]; hrpS mutant WPP90 (phrpN), 12 h): 3.5 ± 0.1; GFP Mean Fluorescence Intensity, hrpN promoter ([4]; hrpS mutant WPP90 (phrpN), 24 h): 5.1 ± 0.1; GFP Mean Fluorescence Intensity, hrpN promoter ([4]; hrpX mutant WPP67 (phrpN), 12 h): 3.5 ± 0.2; GFP Mean Fluorescence Intensity, hrpN promoter ([4]; hrpX mutant WPP67 (phrpN), 24 h): 6.3 ± 0.7; GFP Mean Fluorescence Intensity, hrpN promoter ([4]; hrpY mutant WPP92 (phrpN), 12 h): 3.6 ± 0.1; GFP Mean Fluorescence Intensity, hrpN promoter ([4]; hrpY mutant WPP92 (phrpN), 24 h): 5.5 ± 0.3; inhibitory effect on hrpA at 10 μM, in words ([5]; 10 μM added to T3SS-inducing minimal medium (MM)): No inhibitory effect; GFP Mean Fluorescence Intensity, hrpA promoter ([5]; Ech3937 (phrpA), 12 h, listed as PCA): 9.2 ± 0.4; Mean Fluorescence Intensity of GFP (hrpA, phrpA) [5, 9]: 9.4 ± 0.1; Mean Fluorescence Intensity of GFP (hrpA, phrpA) ([5]; Trial 2, MM supplemented with compound at 100 μM): 9.3 ± 0.2; effect on GFP fluorescence intensity of Ech3937 (phrpA), in words ([5]; concentrations at 0.001, 0.005 and 0.01): did not result in substantial reduction of GFP fluorescence intensity; GFP Mean Fluorescence Intensity, hrpA promoter [5, 8]: 7.3 ± 0.1; GFP Mean Fluorescence Intensity, hrpA promoter ([5]; hrpL mutant WPP96 (phrpA), 24 h): 9.0 ± 1.6; GFP Mean Fluorescence Intensity, hrpA promoter ([5]; hrpS mutant WPP90 (phrpA), 12 h): 7.9 ± 0.2; GFP Mean Fluorescence Intensity, hrpA promoter ([5]; hrpS mutant WPP90 (phrpA), 24 h): 9.3 ± 0.2; GFP Mean Fluorescence Intensity, hrpA promoter ([5]; hrpX mutant WPP67 (phrpA), 12 h): 7.9 ± 0.2; GFP Mean Fluorescence Intensity, hrpA promoter ([5]; hrpX mutant WPP67 (phrpA), 24 h): 9.0 ± 1.3; GFP Mean Fluorescence Intensity, hrpA promoter ([5]; hrpY mutant WPP92 (phrpA), 12 h): 6.9 ± 0.1; GFP Mean Fluorescence Intensity, hrpA promoter ([5]; hrpY mutant WPP92 (phrpA), 24 h): 9.4 ± 0.7; GFP Mean Fluorescence Intensity, hrpL promoter ([6]; Ech3937 (phrpL), 12 h): 7.8 ± 0.1

**Q.** How did the “Avg MFI ± SD, hrpA expression” value ([1]; 6 h) turn out when `O=C(/C=C/c1ccc(O)cc1)NO` [Compound 103, trans-4-Hydroxycinnamohydroxamic acid] was run?
**A.** 206.9 ± 3.9

**Q.** And the “Avg MFI ± SD, hrpA expression” value ([1]; 9 h)?
**A.** 168.2 ± 24.9

**Q.** What about the “mean fluorescence intensity of GFP, hrpS promoter” value ([3]; 12 h) of the same compound?
**A.** 27.7 ± 1.5

**Q.** And the “mean fluorescence intensity of GFP, hrpS promoter” value ([3]; 24 h)?
**A.** 26.4 ± 0.6

**Q.** What about the “inhibitory effect on T3SS hrpS expression, in words” value ([3]; reporter plasmid phrpS) of the same compound?
**A.** inhibited hrpS

**Q.** And the “mean fluorescence intensity of GFP, hrpN promoter” value ([4]; 12 h)?
**A.** 5.8 ± 0.7

**Q.** And the “mean fluorescence intensity of GFP, hrpN promoter” value ([4]; 24 h)?
**A.** 5.4 ± 0.3

**Q.** And the “reduction of hrpA expression” value ([5]; 10 μM added to the medium)?
**A.** approximately 4 fold

**Q.** What about the “inhibitory activity on T3SS gene (hrpA) expression, in words” value ([5]; D. dadantii 3937, reporter plasmid phrpA, 100 μM) of the same compound?
**A.** showed inhibitory effect

**Q.** What about the minimal effective concentration ([5]; Dickeya dadantii, read-out: minimal inhibitory concentration on hrpA expression (concentration showing inhibitory effect)) of the same compound?
**A.** 10 µM

**Q.** And the “Mean Fluorescence Intensity of GFP (hrpA, phrpA)” value [5, 9]?
**A.** 9.3 ± 0.3

**Q.** What about the “mean fluorescence intensity of GFP, hrpL promoter” value ([6]; 12 h) of the same compound?
**A.** 7.6 ± 0.2

**Q.** What about the “mean fluorescence intensity of GFP, hrpL promoter” value ([6]; 24 h) of the same compound?
**A.** 7.7 ± 0.2

— US9260382B2, “Methods of reducing virulence in bacteria” (priority 2010, dated 2016)
